US7586022B2, “Transgenic non-human animal model of lung tumorigenesis” (Trustees of Dartmouth College, priority 2006, dated 2009)
“Also recorded” adds a separate entry of the source.

Assays:
[1] = system: exogenous cyclin E; assay: exogenous cyclin E expression in retrovirally transduced BEAS-2B cells treated with agents; format: cell-based, human; settings: treated for 24, 36 and 48 hours
Description: To determine whether other agents could modulate the expression of cyclin E, […], N-(4-hydroxyphenyl)retinamide (4HPR or fenretinide), or other non-classical retinoids for 24, 36 and 48 hours.

[2] = system: BEAS-2B human bronchial epithelial cells; settings: cited from earlier work

CC1(C)CC[C@]2(C(=O)O)CC[C@]3(C)[C@H](C(=O)C=C4[C@@]5(C)C=C(C#N)C(=O)C(C)(C)[C@@H]5CC[C@]43C)[C@@H]2C1 [CDDO, 2-cyano-3,12-dioxooleana-1,9-dien-28-oic acid]
exogenous cyclin E expression [1]: potently repress exogenous cyclin E expression; also recorded: most potently decreased exogenous cyclin E expression, as early as 24 hours after treatment

CC1=C(/C=C/C(C)=C/C=C/C(C)=C/C(=O)O)C(C)(C)CCC1 [RA, All-trans-retinoic acid]
NNK-mediated transformation ([2]; BEAS-2B cells exposed to NNK): antagonizes NNK-mediated transformation by causing G1 arrest | cyclin E expression ([2]; RA treatment): represses cyclin E expression via activation of a proteosomal degradation pathway
